Source: publication PMC9007951, “Systematically evaluating DOTATATE and FDG as PET immuno-imaging tracers of cardiovascular inflammation” (Scientific Reports, 2022)

Key:
[1] = test system: Apoe^−/− atherosclerotic mice; assay: In vivo PET/CT of vascular inflammation in atherosclerotic mice; conditions: tracer circulated 60 min, median, N = 4
Experimental: (§1) Animals were housed under a constant room temperature at 25 ± 2 °C and 50 ± 5% humidity with a 12-h daylight period and 12-h darkness period, with free access to water. For the mouse atherosclerosis model, 8-weeks old female Apoe^−/− mice (N = 51) were purchased from Jackson Laboratories (Bar Harbor, ME) and, after a 48 h acclimatization period, were fed a Western Diet (42% Kcal from fat TD88137, Envigo, Huntingdon, UK) for 12 weeks. 16–20 weeks old female C57Bl/6 controls (N = 67) were kept on regular chow diet. The myocardial infarction group consisted 16–20 weeks old female C57Bl/6 mice (N = 18) purchased from Jackson Laboratories and subjected to ligation of the left anterior descending artery, as previously described.
(§2) For the PET/CT experiments, mice were fasted for 12 h before radiotracer injection and anesthetized with xylazine (10 mg/kg) and ketamine (100 mg/kg) through intraperitoneal injection prior to radiotracer administration. Subsequently they were injected via the lateral tail vein with approximately 22.2 MBq of [^18F]F-FDG or 5.55 MBq of [^64Cu]Cu-DOTATATE. Tracers were allowed to circulate for 60 min. Immediately before imaging, mice were placed under 1% isoflurane (BaxterHealthcare, Deerfield, IL), and subsequently imaged on a high resolution (700 µm) Mediso nanoScan PET/CT scanner (Mediso, Budapest, Hungary). CT scan was acquired at 50 kVp and 300 ms exposure per projection. eXIA160 (Binitio, Ontario, Canada) was used as a contrast agent to improve imaging of the vasculature by intravenous administration of 100 μl per mouse 5 min prior to CT acquisition. PET acquisition time was 40 min. Reconstruction was performed using TeraTomo 3D reconstruction engine, for 8 iterations and 6 subsets per iteration for both tracers. The voxel size was isotropic at 0.3 mm. Immediately after the PET/CT scan, animals were euthanized for ex vivo assays.
(§3) Using OsiriX v5.6 software (OsiriX Foundation, Geneva, Switzerland), regions of interest (ROIs) were drawn to determine organ radioactivity concentration. In mice, for healthy and infarcted myocardium, ROIs were traced manually in the apex of the heart in the axial view. For remote myocardium, analysis was performed in myocardium 180° from the infarcted zone. In the mice aorta, sequential ROIs were drawn in the ascending aorta based on consecutive tomographic (CT) slices beginning from the root up to the brachiocephalic branch, merging point with the aortic arch. Voxel counts were converted to maximum standardized uptake values (SUVmax). In rabbits, PET images were fused with time-of-flight bright blood MRI angiography and ROIs were manually drawn on the infrarenal abdominal aorta in TOF images. The slice-by-slice maximum standard uptake values (SUVmax) were averaged across the whole aorta. […]

[2] = test system: C57Bl/6 mice subjected to myocardial infarction; assay: In vivo PET/CT of cardiac inflammation in infarcted mice; conditions: tracer circulated 60 min, median
Experimental: (§4) Myocardial infarction in mice was induced by permanent ligation of the left anterior descending (LAD) coronary artery of female C57Bl/6 mice (N = 18). Briefly, animals were anesthetized with xylazine (10 mg/kg) and ketamine (100 mg/kg) and intubated using an endotracheal intubation kit from Braintree Scientific (Braintree, MA). Left-sided thoracotomy and pericardial incision were performed. A 7-0 Silk suture was used to occlude the LAD. Incisions were closed with a 5-0 Silk suture. Infarcted animals were treated with 0.1 mg/kg of buprenorphine every 12 h and used 3 days after the surgery.
as §2, §3

[3] = In vivo PET/CT of vascular inflammation in atherosclerotic mice; conditions: female, mouse, ascending aorta, iv, 5.55 MBq, total radioactivity, tracer circulated 60 min, median, N = 4, read-out: SUVmax ascending aorta
Experimental: as §1, §2, §3

[4] = In vivo PET/CT of cardiac inflammation in infarcted mice; conditions: female, mouse, heart, iv, 5.55 MBq, total radioactivity, healthy C57Bl/6 mice, tracer circulated 60 min, median, N = 4, read-out: SUVmax heart of control animals
Experimental: as §4, §2, §3

[5] = Ex vivo gamma counting of whole aorta after PET/CT; assay type: in vivo, mice; conditions: female, mouse, iv, 5.55 MBq, total radioactivity, median, N = 4
Experimental: S1A) to evaluate the tracer’s biodistribution. After euthanasia, an insulin syringe was used to collect blood samples from the right ventricle. Blood samples were used for the establishment of pharmacokinetics profile. Mice were then perfused with 20 mL of phosphate-buffered saline (PBS) and tissues of interest (heart, aorta, bone marrow, spleen, liver, stomach, bladder, kidneys, intestines, lungs, adrenal gland, muscles and pancreas) were harvested. Tissues were blotted for gamma counting on a Wizard2 2480 automatic gamma counter (Perkin Elmer, Waltham, MA). Values were corrected for decay and normalized to tissue weight to express radioactivity concentration as percentage injected dose per gram (%ID/g). […] To investigate the tracer’s distribution within different blood compartments, after gamma counting, 100 μL of blood were spun down at 2000 g for 15 min at 4 °C. Plasma (supernatant) and cells (pellet) were gamma counted and expressed as percentage of total activity. The remainder of the blood was separated using Lymphoprep density gradient medium (Nycomed Pharma, Zurich, Switzerland) following manufacturer’s instructions. Percentage of activity in mononuclear and polynuclear cells was calculated. […]

[6] = Apoe^−/− mice 12 weeks on Western Diet
[7] = C57Bl/6 mice 3 days after LAD ligation, N = 4 ([^64Cu]Cu-DOTATATE), N = 6 ([^18F]F-FDG)

SUVmax ascending aorta [1, 6] | SUVmax ascending aorta ([1]; healthy C57Bl/6 control mice) | SUVmax infarcted myocardium [2, 7] | SUVmax remote (non-infarcted) myocardium [2, 7] | SUVmax heart of control animals ([2]; healthy C57Bl/6 mice, N = 4) | SUV at 1 h [3, 6] [SUV] | SUV at 1 h ([3]; healthy C57Bl/6 control mice) [SUV] | SUV at 1 h [4] [SUV] | tissue uptake ([5]; atherosclerotic Apoe^−/− mice after PET/CT) [%ID/g] | tissue uptake ([5]; control C57Bl/6 mice after PET/CT) [%ID/g] | SMILES
1.2 | 1.7 | 4.2 | 2.1 | 3.4 | – | – | – | – | – | OC[C@H]1OC(O)[C@H]([18F])[C@@H](O)[C@@H]1O (stereo partly shown) [[^18F]F-FDG, [^18F]F-fluorodeoxyglucose]
– | – | – | – | – | 1.1 | 0.5 | 0.6 | 7.4 | 3.5 | C[C@@H](O)[C@H](NC(=O)[C@@H]1CSSC[C@H](NC(=O)[C@@H](Cc2ccccc2)NC(=O)CN2CCN(CC(=O)O)CCN(CC(=O)O)CCN(CC(=O)O)CC2)C(=O)N[C@@H](Cc2ccc(O)cc2)C(=O)N[C@H](Cc2c[nH]c3ccccc23)C(=O)N[C@@H](CCCCN)C(=O)N[C@@H]([C@@H](C)O)C(=O)N1)C(=O)O [[^64Cu]Cu-DOTATATE, metal not drawn]
